In DBAASP:
Converted amounts (≈) assume the structure as drawn. One block for each compound: values may come before it.

Legend:
Test in all cases: ≥ marks a high value that may be exact or a test limit, other limits are often not marked, values filed in µg/mL are converted to µM
[1] = system: Staphylococcus epidermidis ATCC 12228
[2] = system: Pseudomonas aeruginosa ATCC 27853
[3] = system: Escherichia coli CMCC 44102
[4] = system: Staphylococcus aureus CMCC 26003
[5] = system: Salmonella enterica subsp. enterica serovar Typhimurium ATCC 14028
[6] = system: Salmonella enterica subsp. enterica serovar Pullorum C79-13
[7] = system: Salmonella enterica subsp. enterica serovar Typhimurium C77-31
[8] = system: Staphylococcus aureus ATCC 29213
[9] = system: Staphylococcus aureus ATCC 25923
Escherichia coli UB1005 = system: Escherichia coli UB1005
[10] = system: Salmonella enterica subsp. enterica serovar Typhi CMCC 50071
[11] = system: Acinetobacter baumannii KCTC 2508
[12] = system: Bacillus subtilis KCTC 2217
[13] = system: Enterococcus faecium ATCC 51559
[14] = system: Pseudomonas aeruginosa KCTC 1637
[15] = system: Staphylococcus aureus CCARM 3089
[16] = system: Staphylococcus aureus KCTC 1621
[17] = system: Salmonella typhimurium KCTC 1926
[18] = system: Bacillus subtilis KCTC 3068
[19] = system: Staphylococcus epidermidis KCTC 1917
[20] = system: Escherichia coli KCTC 1682
[21] = system: Pseudomonas aeruginosa CCARM 2095
[22] = system: Staphylococcus aureus CCARM 3090
[23] = system: Staphylococcus aureus CCARM 3095
Candida tropicalis = system: Candida tropicalis
Aspergillus fumigatus = system: Aspergillus fumigatus
Candida krusei = system: Candida krusei
[24] = system: Aspergillus flavus ATCC MYA-3651
[25] = system: Acinetobacter baumannii ATCC 17978
[26] = system: Staphylococcus epidermidis ATCC 51625
Candida albicans 17-88 = system: Candida albicans 17-88
[27] = system: Cutibacterium acnes ATCC 6919
Candida glabrata = system: Candida glabrata
[28] = system: Pseudomonas aeruginosa ATCC 19660
Candida parapsilosis = system: Candida parapsilosis
[29] = system: Klebsiella pneumoniae ATCC 10031
Enterobacter cloacae = system: Enterobacter cloacae
[30] = system: Mucor circinelloides NRRL 3631
Staphylococcus aureus = system: Staphylococcus aureus
[31] = system: Candida albicans NRRL Y-326
[32] = system: Lichtheimia corymbifera NRRL 6251
Staphylococcus aureus MR = system: Staphylococcus aureus MR
[33] = system: Cutibacterium acnes ATCC 11827
[34] = system: Candida parapsilosis NRRL Y-1761
Candida albicans = system: Candida albicans
Kluyveromyces lactis = system: Kluyveromyces lactis
Cutibacterium acnes = system: Cutibacterium acnes
[35] = system: Staphylococcus aureus ATCC 33592
[36] = system: Fusarium solani NRRL 28548
Candida dubliniensis = system: Candida dubliniensis
Debaryomyces hansenii = system: Debaryomyces hansenii
[37] = system: Candida krusei NRRL Y-27803

SMILES: CC[C@H](C)[C@H](NC(=O)[C@H](CCCN=C(N)N)NC(=O)[C@H](CCCN=C(N)N)NC(=O)[C@H](CC(C)C)NC(=O)[C@H](Cc1ccccc1)NC(=O)[C@@H]1CCCN1C(=O)[C@H](CCCN=C(N)N)NC(=O)[C@H](CCSC)NC(=O)[C@@H](NC(=O)[C@H](CCCCN)NC(=O)[C@H](CCCCN)NC(=O)[C@H](CS)NC(=O)[C@@H](NC(=O)CNC(=O)[C@@H]1CCCN1C(=O)[C@H](CC(C)C)NC(=O)[C@@H](NC(=O)[C@@H](N)CCCCN)[C@@H](C)CC)C(C)C)[C@@H](C)CC)C(=O)N[C@@H](CO)C(=O)N[C@@H](CCCCN)C(=O)N[C@@H](CC(=O)O)C(=O)N[C@H](C(=O)N[C@@H](CC(C)C)C(=O)N[C@H](C(=O)NCC(=O)N[C@@H](CCCCN)C(=O)N[C@@H](CCCCN)C(N)=O)[C@@H](C)O)[C@@H](C)CC [KILPGVCKKIMRPFLRRISKDILTGKK]
MIC [1]: 8 µM (≈ 25.1 µg/mL)
MIC [2]: 32 µM (≈ 100 µg/mL)
MIC [3]: 8 µM (≈ 25.1 µg/mL)
MIC [4]: 8 µM (≈ 25.1 µg/mL)

SMILES: NCCCC[C@H](NC(=O)[C@H](CCCCN)NC(=O)[C@H](CCCN=C(N)N)NC(=O)[C@H](CCCN=C(N)N)NC(=O)[C@H](Cc1c[nH]c2ccccc12)NC(=O)[C@H](CCC(N)=O)NC(=O)[C@H](Cc1c[nH]c2ccccc12)NC(=O)[C@H](CCCN=C(N)N)NC(=O)[C@H](CCCN=C(N)N)NC(=O)[C@H](CCCCN)NC(=O)[C@@H](N)CCCCN)C(N)=O [KKRRWQWRRKK]
MIC [5]: > 128 µM
MIC [6]: ≥ 128 µM
MIC [1]: > 128 µM
MIC [7]: ≥ 128 µM
MIC [8]: > 128 µM
MIC [9]: 128 µM (≈ 212 µg/mL)
MIC (Escherichia coli UB1005): ≥ 32 µM
MIC [10]: ≥ 128 µM

SMILES: CC(C)C[C@H](NC(=O)[C@H](CC(C)C)NC(=O)[C@@H]1CCCN1C(=O)[C@H](CCCCN)NC(=O)[C@H](CCCCN)NC(=O)[C@H](CC(C)C)NC(=O)[C@H](CC(C)C)NC(=O)[C@H](CCCCN)NC(=O)[C@H](CCCCN)NC(=O)[C@H](Cc1c[nH]c2ccccc12)NC(=O)[C@@H](N)CCCCN)C(=O)N[C@@H](CCCCN)C(N)=O [KWKKLLKKPLLK]
MIC [11]: 25 µM (≈ 38.1 µg/mL)
MIC [2]: > 25 µM
MIC [12]: 6.25 µM (≈ 9.51 µg/mL)

Now from value to compound:

MIC [13]: ≥ 50 µM
MIC [14]: 6.3 µM (≈ 14.3 µg/mL)
MIC [15]: 12.5 µM (≈ 28.5 µg/mL)
MIC [16]: 12.5 µM (≈ 28.5 µg/mL)
MIC [17]: 6.3 µM (≈ 14.3 µg/mL)
MIC [18]: 6.3 µM (≈ 14.3 µg/mL)
MIC [19]: 6.3 µM (≈ 14.3 µg/mL)
MIC [20]: 6.3 µM (≈ 14.3 µg/mL)
MIC [21]: 25 µM (≈ 56.9 µg/mL)
MIC [22]: 25 µM (≈ 56.9 µg/mL)
MIC [23]: 25 µM (≈ 56.9 µg/mL)
SMILES: CC[C@H](C)[C@H](NC(=O)[C@@H](NC(=O)[C@H](Cc1cnc[nH]1)NC(=O)[C@H](CCCN=C(N)N)NC(=O)[C@H](C)NC(=O)[C@H](CCCN=C(N)N)NC(=O)[C@H](CC(C)C)NC(=O)[C@H](CO)NC(=O)[C@H](C)NC(=O)[C@H](CC(C)C)NC(=O)[C@@H](N)CC(N)=O)[C@@H](C)O)C(=O)N1CCC[C@H]1C(=O)N[C@@H](CCC(N)=O)C(=O)N[C@@H](CCCN=C(N)N)C(=O)N[C@@H](CCCCN)C(=O)N[C@@H](Cc1ccccc1)C(=O)NCC(=O)N[C@@H](CCCN=C(N)N)C(=O)N[C@@H](CCCN=C(N)N)C(=O)O [NLASLRARHTIPQRKFGRR]

MIC (Candida tropicalis): 1.33 µM (≈ 2.86 µg/mL)
MIC (Aspergillus fumigatus): 29.7 µM (≈ 63.9 µg/mL)
MIC (Candida krusei): 5.23 µM (≈ 11.3 µg/mL)
MIC [24]: 29.7 µM (≈ 63.9 µg/mL)
MIC [25]: 3.71 µM (≈ 7.98 µg/mL)
MIC [26]: 1.85 µM (≈ 3.99 µg/mL)
MIC (Candida albicans 17-88): 7.4 µM (≈ 15.9 µg/mL)
MIC [27]: 1.85 µM (≈ 3.99 µg/mL)
MIC (Candida glabrata): 10.5 µM (≈ 22.7 µg/mL)
MIC [28]: 3.71 µM (≈ 7.98 µg/mL)
MIC (Candida parapsilosis): 15 µM (≈ 32.3 µg/mL)
MIC [29]: 3.71 µM (≈ 7.98 µg/mL)
MIC (Enterobacter cloacae): 3.71 µM (≈ 7.98 µg/mL)
MIC [30]: 29.7 µM (≈ 63.9 µg/mL)
MIC (Staphylococcus aureus): 5.25 µM (≈ 11.3 µg/mL)
MIC [2]: 3.71 µM (≈ 7.98 µg/mL)
MIC [31]: 5.25 µM (≈ 11.3 µg/mL)
MIC [32]: 0.927 µM (≈ 2 µg/mL)
MIC (Staphylococcus aureus MR): 2.62 µM (≈ 5.64 µg/mL)
MIC [33]: 3.71 µM (≈ 7.98 µg/mL)
MIC [34]: 14.8 µM (≈ 31.9 µg/mL)
MIC (Candida albicans): 10.5 µM (≈ 22.7 µg/mL)
MIC (Kluyveromyces lactis): 1.9 µM (≈ 4.09 µg/mL)
MIC (Cutibacterium acnes): 1.31 µM (≈ 2.82 µg/mL)
MIC [35]: 1.85 µM (≈ 3.99 µg/mL)
MIC [36]: 0.927 µM (≈ 2 µg/mL)
MIC (Candida dubliniensis): 3.7 µM (≈ 7.96 µg/mL)
MIC (Debaryomyces hansenii): 7.4 µM (≈ 15.9 µg/mL)
MIC [37]: 10.5 µM (≈ 22.6 µg/mL)
SMILES: CC[C@H](C)[C@@H]1NC(=O)CNC(=O)[C@H](CCCCN)NC(=O)[C@H](Cc2ccc(O)cc2)NC(=O)[C@@H]2CSSC[C@H](NC1=O)C(=O)N[C@@H](Cc1ccc(O)cc1)C(=O)N[C@@H](CCCCN)C(=O)N[C@@H](CCCCN)C(=O)N[C@H](C(=O)N[C@@H](CCCCN)C(N)=O)CSSC[C@H](NC(=O)[C@H](Cc1c[nH]c3ccccc13)NC(=O)[C@@H](N)CCCN=C(N)N)C(=O)N[C@@H](Cc1ccccc1)C(=O)N[C@@H](CCCCN)C(=O)N[C@@H](C(C)C)C(=O)N2 [RWCFKVCYKGICYKKCK]
